Results published in patent publication US20250051390A1, “NOVEL ADIPONECTIN-DERIVED PEPTOID DERIVATIVE AND USE THEREOF” (SEOUL NATIONAL UNIVERSITY HOSPITAL, priority 2021, published 2025).
Values after ≈ are worked out from the molar mass of the structure shown. *1 amine or outer side, *2 acyl side, *3 side chain or, on linkers, in order; H or OH if unused. Where a SMILES comes first, the peptide text is derived from it. [ ]: non-standard residue; d: D form. Gly(N-4-hydroxybenzyl) = O=C(O)CNCc1ccc(O)cc1; X1 = O=C(CN(Cc1ccc(C(F)(F)F)cc1)[*:1])[*:2]; Gly(N-cPent) = O=C(O)CNC1CCCC1; Gly(NCH2cPr) = O=C(O)CNCC1CC1; N(cBu)Gly = O=C(O)CNC1CCC1; Nphe = O=C(O)CNCc1ccccc1

What was measured:
[1] = Plasma stability test, rat plasma; details: 1 μM, 37° C.
Procedure: (§2) The peptoid derivative of the present disclosure was added at a concentration of 1 μM to two types of plasma (human, rat), placed in each tube, and then cultured at 37° C. for time of 0, 30, 60, 120, and 240 minutes. The tube containing plasma was taken out every time, added with an acetonitrile solution containing an internal standard material (chlorpropamide), vortexed for 5 minutes, and centrifuged for 5 minutes (14,000 rpm, 4° C.). Thereafter, the plasma stability of the peptoid derivative was evaluated by injecting the supernatant into an LC-MS/MS system and analyzing the drug at each time period. At this time, Procaine and Enalapril were used as reference materials for accuracy during a general plasma stability test.
(§3) After the reaction, the amount of drug remaining in each tube was analyzed by LC-MS/MS using Shimadzu Nexera XR system and TSQ vantage (Thermo). The HPLC column was used with a Luna C18 column (2.0×50 mm, 3 μm particle size; Phenomenex, US), and the mobile phase was distilled water (A) containing 0.1% formic acid and acetonitrile (B) containing 0.1% formic acid. Data analysis was performed using Xcalibur (version 1.6.1). In the result analysis, the plasma stability of each peptoid derivative was expressed as % remaining for each time period for the sample without culture.

[2] = Plasma stability test, human plasma; details: 1 μM, 37° C.
Procedure: as §2, §3

AMPK phosphorylation [3] = assay: AMPK phosphorylation activity in mouse adipocytes (Western blot); format: cell-based; details: 3T3-L1, 10 μM, 24 hours; for AMPK phosphorylation activity (fold change): Western blot, APN5 = 1.0
Procedure: There were confirmed effects of the peptoid derivative of the present disclosure on the expression and receptor activity of adiponectin in mouse adipocytes as a main adiponectin production site. A mouse adipocyte cell line 3T3-L1 was treated with each of the peptoid derivatives of the present disclosure at a concentration of 10 μM and cultured for 24 hours, and then cells were obtained. Thereafter, the protein was extracted and the effect of adiponectin on AMPK phosphorylation, which was responsible for the main downstream signaling, was confirmed by Western blot.

adiponectin receptor 1 = target: T1, adiponectin receptor 1 (Mus musculus, UniProt Q91VH1); assay: Loss of AMPK phosphorylation activity after knockdown of adiponectin receptor 1; format: cell-based; details: 3T3-L1, adiponectin receptor 1 siRNA, 10 μM, 24 hours
T1 construct: a mouse adipocyte cell line 3T3-L1 was treated with siRNA of an adiponectin receptor 1 to be knocked down; endogenous in cells; host or cells: 3T3-L1 mouse adipocyte cell line
T1 sequence (Q91VH1 1-375): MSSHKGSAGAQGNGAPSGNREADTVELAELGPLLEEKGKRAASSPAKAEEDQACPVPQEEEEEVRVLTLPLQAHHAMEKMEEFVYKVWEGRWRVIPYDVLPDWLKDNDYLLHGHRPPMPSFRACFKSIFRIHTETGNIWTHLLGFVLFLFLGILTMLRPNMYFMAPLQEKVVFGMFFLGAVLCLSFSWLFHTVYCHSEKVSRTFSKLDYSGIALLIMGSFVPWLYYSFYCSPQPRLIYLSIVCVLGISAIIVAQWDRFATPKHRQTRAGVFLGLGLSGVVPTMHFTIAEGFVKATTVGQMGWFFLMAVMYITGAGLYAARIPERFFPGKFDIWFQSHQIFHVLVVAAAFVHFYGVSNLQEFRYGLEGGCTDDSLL
Procedure: In order to verify whether the peptoid derivative of the present disclosure bound to an adiponectin receptor 1, a mouse adipocyte cell line 3T3-L1 was treated with siRNA of an adiponectin receptor 1 to be knocked down, and each of the peptoid derivatives of the present disclosure was treated at a concentration of 10 μM and cultured for 24 hours, and then cells were obtained. Thereafter, the proteins were extracted and it was confirmed by Western blot whether AMPK phosphorylation activity, which had been increased by the peptoid derivatives, was lost.

AMPK phosphorylation [4] = assay: Concentration dependence of AMPK phosphorylation activity; format: cell-based, mouse; details: 3T3-L1, 0, 0.01, 0.1, 1, 10, and 100 μM, 24 hours
Text: Thereafter, the protein was extracted and the effect of the peptoid derivative on AMPK phosphorylation in a concentration-dependent manner was confirmed by Western blot.

physchem = details: pH 7.4
Procedure: (§4) A PRISMA HT solution was diluted in distilled water at a ratio of 1:40, and then used as a test buffer by adjusting the pH to 7.4.
(§5) 10 mL of the prepared test material was diluted in 190 μL of isopropyl alcohol and prepared. In addition, 75 mL of the test solution and 70 mL of isopropyl alcohol were mixed to be used as a blank sample, and 5 mL of the test material diluted in isopropyl alcohol was added to the blank sample. After the diluted sample was mixed, the absorbance was measured and used as an initial test value. […] Thereafter, the precipitate was removed from the sample using a filter plate, 74 mL of the filtered sample was added with 75 mL of isopropyl alcohol, and then the absorbance was measured and used as the sample value.
(§6) The solubility value of the test material was analyzed using a msol Explore (Solubility explorer program) after measuring the absorbance of each sample through a microplate reader. The average and standard deviation of the experimental values (n=3) repeated three times were calculated using the Excel program.

in vitro [5] = details: human, plasma
Procedure: as §2, §3

in vitro [6] = details: rat, plasma
Procedure: as §2, §3

in vitro [7] = details: human, microsomes, pH 7.4
Procedure: (§7) Three types of liver microsomes (Human, Rat, Mouse, 0.5 mg/ml), a 0.1 M phosphate buffer solution (pH 7.4), and the peptoid derivative of the present disclosure were added at a concentration of 1 μM and pre-cultured at 37° C. for 5 minutes, and then added with an NADPH Regeneration system solution and cultured at 37° C. for 30 minutes. Thereafter, to terminate the reaction, the mixture was added with an acetonitrile solution containing an internal standard material (chlorpropamide), centrifuged for 5 minutes (14,000 rpm, 4° C.), and then the supernatant was injected into the LC-MS/MS system to analyze a substrate drug, and thus metabolic stability was evaluated.
(§8) The HPLC column was used with a Kinetex C18 column (2.1×100 mm, 1.7 μm particle size; Phenomenex, USA), and the mobile phase was distilled water (A) containing 0.1% formic acid and acetonitrile (B) containing 0.1% formic acid. TurboSpray Ionization was used as an ion source for MS/MS, and a triple quadruple type was used as a mass spectrometer. The produced metabolites were quantified using a multiple reaction monitoring (MRM) quantitative mode, and data analysis was performed using Analyst software (version 1.6.1).

in vitro [8] = details: rat, microsomes, pH 7.4
Procedure: as §7
(§9) The amount of substrate remaining through the reaction was analyzed by LC-MS/MS using Agilent 1290 infinity series pump system (Agilent, USA) and Triple Quad 5500 LC-MS/MS system (Applied Biosystems, USA). The HPLC column was used with a Kinetex C18 column (2.1×100 mm, 1.7 μm particle size; Phenomenex, USA), and the mobile phase was distilled water (A) containing 0.1% formic acid and acetonitrile (B) containing 0.1% formic acid. TurboSpray Ionization was used as an ion source for MS/MS, and a triple quadruple type was used as a mass spectrometer. The produced metabolites were quantified using a multiple reaction monitoring (MRM) quantitative mode, and data analysis was performed using Analyst software (version 1.6.1).

in vitro [9] = details: mouse, microsomes, pH 7.4
Procedure: as §7, §9

CYP1A2 = target: T2, CYP1A2 (Homo sapiens, UniProt P05177); assay: CYP inhibition assay, CYP1A2; details: human liver microsomes 0.25 mg/ml, 10 μM, 15 minutes
T2 sequence (P05177 1-516): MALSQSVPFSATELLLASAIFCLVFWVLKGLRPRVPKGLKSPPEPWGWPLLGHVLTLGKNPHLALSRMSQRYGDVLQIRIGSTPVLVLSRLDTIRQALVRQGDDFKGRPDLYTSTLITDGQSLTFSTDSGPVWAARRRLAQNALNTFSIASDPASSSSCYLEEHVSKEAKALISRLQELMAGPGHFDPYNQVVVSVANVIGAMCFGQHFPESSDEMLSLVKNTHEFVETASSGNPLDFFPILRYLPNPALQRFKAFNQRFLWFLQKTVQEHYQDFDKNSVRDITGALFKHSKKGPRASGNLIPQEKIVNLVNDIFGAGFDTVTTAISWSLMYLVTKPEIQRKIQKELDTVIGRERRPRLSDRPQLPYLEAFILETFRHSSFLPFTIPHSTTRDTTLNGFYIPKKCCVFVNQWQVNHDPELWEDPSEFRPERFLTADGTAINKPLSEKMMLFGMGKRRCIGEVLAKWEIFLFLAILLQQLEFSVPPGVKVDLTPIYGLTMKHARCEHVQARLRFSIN
Procedure: (§1) Metabolites of each CYP isoenzyme indicator drug produced through the reaction were analyzed by LC-MS/MS using the Shimadzu Nexera XR system and TSQ vantage (Thermo).

CYP2C9 = CYP2C9 (Homo sapiens, UniProt P11712); assay: CYP inhibition assay, CYP2C9; details: 10 μM
Procedure: as §1

CYP2C19 = CYP2C19 (Homo sapiens, UniProt P33261); assay: CYP inhibition assay, CYP2C19; details: 10 μM
Procedure: as §1

Solubility test = details: test buffer pH 7.4, DMSO test standard solution, room temperature 24 hours, n=3
Procedure: as §4, §5, §6

[10] = Metabolic stability test, rat liver microsomes; details: rat liver microsomes 0.5 mg/ml, 1 μM, NADPH, 37° C.
Procedure: as §7, §9

[11] = Metabolic stability test, human liver microsomes; details: human liver microsomes 0.5 mg/ml, 1 μM, NADPH, 37° C.
Procedure: as §7, §8

[12] = Metabolic stability test, mouse liver microsomes; details: mouse liver microsomes 0.5 mg/ml, 1 μM, NADPH, 37° C.
Procedure: as §7, §9

[13] = human, microsomes, 15 min, pH 7.4
[14] = human liver microsomes 0.25 mg/ml, 15 minutes

Chain of CYP2C19 (P33261 whole entry): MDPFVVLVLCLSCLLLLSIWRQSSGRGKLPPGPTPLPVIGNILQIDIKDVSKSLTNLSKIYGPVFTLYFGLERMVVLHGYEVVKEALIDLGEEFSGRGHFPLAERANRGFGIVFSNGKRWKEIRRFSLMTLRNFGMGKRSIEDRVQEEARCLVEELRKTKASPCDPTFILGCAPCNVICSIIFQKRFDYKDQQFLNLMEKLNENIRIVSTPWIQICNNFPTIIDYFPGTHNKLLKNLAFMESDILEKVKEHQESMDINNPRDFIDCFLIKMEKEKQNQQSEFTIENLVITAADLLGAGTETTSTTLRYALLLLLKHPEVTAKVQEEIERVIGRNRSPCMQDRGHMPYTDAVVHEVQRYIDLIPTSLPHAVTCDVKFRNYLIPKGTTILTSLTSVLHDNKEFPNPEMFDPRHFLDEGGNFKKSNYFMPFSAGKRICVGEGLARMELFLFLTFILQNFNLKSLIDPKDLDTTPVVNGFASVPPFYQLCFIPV
Chain of CYP2C9 (P11712 whole entry): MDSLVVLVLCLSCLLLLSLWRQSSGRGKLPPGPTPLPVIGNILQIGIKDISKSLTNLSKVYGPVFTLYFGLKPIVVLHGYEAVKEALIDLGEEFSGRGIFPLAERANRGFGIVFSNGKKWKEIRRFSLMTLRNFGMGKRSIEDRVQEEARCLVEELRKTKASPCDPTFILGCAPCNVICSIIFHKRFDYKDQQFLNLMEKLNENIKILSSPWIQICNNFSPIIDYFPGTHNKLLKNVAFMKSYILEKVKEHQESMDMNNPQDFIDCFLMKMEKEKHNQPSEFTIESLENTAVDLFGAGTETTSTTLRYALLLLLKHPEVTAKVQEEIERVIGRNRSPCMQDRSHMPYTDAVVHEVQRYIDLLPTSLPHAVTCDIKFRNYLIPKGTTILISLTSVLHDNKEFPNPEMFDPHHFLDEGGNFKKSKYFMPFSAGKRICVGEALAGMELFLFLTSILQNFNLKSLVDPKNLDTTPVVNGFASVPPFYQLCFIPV

Row | Structure (SMILES) | Plasma stability (% remaining) Rat, 30 m [1] [% remaining] | Plasma stability (% remaining) Rat, 120 m [1] [% remaining] | solubility at 24 h (physchem) [µg/mL] | remaining at 0.5 h, 1 μM (in vitro [5]) [%] | remaining at 2 h, 1 μM (in vitro [5]) [%] | remaining at 0.5 h, 1 μM (in vitro [6]) [%] | remaining at 2 h, 1 μM (in vitro [6]) [%] | remaining at 0.5 h, 1 μM (in vitro [7]) [%] | remaining at 0.5 h, 1 μM (in vitro [8]) [%] | remaining at 0.5 h, 1 μM (in vitro [9]) [%] | effect of increasing AMPK phosphorylation activity compared to APN5 (AMPK phosphorylation [3]) | AMPK phosphorylation activity (fold change) (AMPK phosphorylation [3]) | AMPK phosphorylation activity after knockdown of the adiponectin receptor 1 (adiponectin receptor 1) | also measured
1 | CCOC(=O)[C@H](CCc1ccccc1)N[C@@H](C)C(=O)N1CCC[C@H]1C(=O)O [Enalapril] | 27.9 | <1 | – | – | – | – | – | – | – | – | – | – | – | Plasma stability (% remaining) Human, 30 m [2]: >100 % remaining; Plasma stability (% remaining) Human, 120 m [2]: 97.4 % remaining
2 | CCN(CC)CCOC(=O)c1ccc(N)cc1 [Procaine] | 90.3 | 57.4 | – | – | – | – | – | – | – | – | – | – | – | Plasma stability (% remaining) Human, 30 m column, cell marked (5 min) ([2]; 5 min as printed in the cell): 2.8 (5 min) % remaining; Plasma stability (% remaining) Human, 120 m column, cell marked (5 min) ([2]; 5 min as printed in the cell): <1 (5 min) % remaining
3 | CC(=O)N1CCN(c2ccc(OCC3COC(Cn4ccnc4)(c4ccc(Cl)cc4Cl)O3)cc2)CC1 (stereo not drawn) [Ketoconazole] | – | – | – | – | – | – | – | – | – | – | – | – | – | CYP inhibition (% of control activity) CYP1A2 (CYP1A2): 97.2 % of control activity; CYP inhibition (% of control activity) CYP2C9 (CYP2C9; [13]): >100 % of control activity; CYP inhibition (% of control activity) CYP2C19 (CYP2C19; [13]): >100 % of control activity
4 | NCC(=O)N(CC(=O)N(CC(=O)N(CC(=O)N(CC(N)=O)Cc1ccccc1)Cc1ccc(O)cc1)Cc1ccc(O)cc1)C1CCC1 [DS-15, Ngly-Ncba-Ntyr-Ntyr-Nbn-NH2] (H-G[N(cBu)Gly][Gly(N-4-hydroxybenzyl)][Gly(N-4-hydroxybenzyl)][Nphe]-NH2) | – | – | – | – | – | – | – | – | – | – | significant effect of increasing AMPK phosphorylation activity | 1.2 | reduced the AMPK phosphorylation activity | –

Continued, in another order:

Row | Plasma stability (% remaining) Rat, 30 m [1] [% remaining] | Plasma stability (% remaining) Rat, 120 m [1] [% remaining] | solubility at 24 h (physchem) [µg/mL] | remaining at 0.5 h, 1 μM (in vitro [5]) [%] | remaining at 2 h, 1 μM (in vitro [5]) [%] | remaining at 0.5 h, 1 μM (in vitro [6]) [%] | remaining at 2 h, 1 μM (in vitro [6]) [%] | remaining at 0.5 h, 1 μM (in vitro [7]) [%] | remaining at 0.5 h, 1 μM (in vitro [8]) [%] | remaining at 0.5 h, 1 μM (in vitro [9]) [%] | Structure (SMILES) | effect of increasing AMPK phosphorylation activity compared to APN5 (AMPK phosphorylation [3]) | AMPK phosphorylation activity (fold change) (AMPK phosphorylation [3]) | AMPK phosphorylation activity after knockdown of the adiponectin receptor 1 (adiponectin receptor 1) | also measured
5 | – | – | 325 (≈ 495 µM) | 98.6 | 98.4 | > 100 | 95.9 | 93.6 | 80.9 | 76 | NCC(=O)N(CC(=O)N(CC(=O)N(CC(=O)N(CC(N)=O)Cc1ccccc1)Cc1ccc(O)cc1)Cc1ccccc1)C1CCCC1 [DS-25, Ngly-Ncpe-Nbn-Ntyr-Nbn-NH2] (H-G[Gly(N-cPent)][Nphe][Gly(N-4-hydroxybenzyl)][Nphe]-NH2) | significant effect of increasing AMPK phosphorylation activity | 2.1 | reduced the AMPK phosphorylation activity | concentration dependence of AMPK phosphorylation activity (AMPK phosphorylation [4]): increased AMPK phosphorylation activity in a concentration-dependent manner
6 | >100 | >100 | – | – | – | – | – | – | – | – | O=C(COc1ccc(C(=O)c2ccccc2)cc1)NC1CCN(Cc2ccccc2)CC1 [DS-43, adiporon] | – | 1.2 | – | CYP inhibition (% of control activity) CYP2C9 (CYP2C9; [14]): 57.8 % of control activity; CYP inhibition (% of control activity) CYP2C19 (CYP2C19; [14]): 66.0 % of control activity; Average DMSO solubility (Solubility test): 43.7 µg/mL; Plasma stability (% remaining) Human, 30 m [2]: >100 % remaining; Plasma stability (% remaining) Human, 120 m [2]: >100 % remaining; Metabolic stability (% remaining) Rat, 30 m [10]: 2.3 % remaining; Metabolic stability (% remaining) Human, 30 m [11]: 54.9 % remaining; Metabolic stability (% remaining) Mouse, 30 m [12]: 3.1 % remaining
7 | – | – | 333 (≈ 495 µM) | > 100 | > 100 | > 100 | 99.5 | 87.1 | 79.8 | 75.5 | NCC(=O)N(CC(=O)N(CC(=O)N(CC(=O)N(CC(N)=O)Cc1ccccc1)Cc1ccc(O)cc1)Cc1ccc(O)cc1)C1CCCC1 [DS-16, Ngly-Ncpe-Ntyr-Ntyr-Nbn-NH2] (H-G[Gly(N-cPent)][Gly(N-4-hydroxybenzyl)][Gly(N-4-hydroxybenzyl)][Nphe]-NH2) | significant effect of increasing AMPK phosphorylation activity | 1.4 | reduced the AMPK phosphorylation activity | concentration dependence of AMPK phosphorylation activity (AMPK phosphorylation [4]): increased AMPK phosphorylation activity in a concentration-dependent manner
8 | – | – | 73.3 (≈ 93.8 µM) | > 100 | > 100 | > 100 | > 100 | > 100 | > 100 | 84.4 | NCC(=O)N(CCC(=O)O)CC(=O)N(CC(=O)N(CC(=O)N(CC(N)=O)Cc1ccccc1)Cc1ccc(C(F)(F)F)cc1)Cc1ccc(C(F)(F)F)cc1 [DS-71, Ngly-Nasp-Ntfp-Ntfp-Nbn-NH2] | – | – | – | –
9 | – | – | 351 (≈ 495 µM) | > 100 | > 100 | > 100 | > 100 | 77.2 | 73 | 95.3 | NCC(=O)N(CC(=O)N(CC(=O)N(CC(=O)N(CC(N)=O)Cc1ccc(C(F)(F)F)cc1)Cc1ccccc1)Cc1ccccc1)C1CCCC1 [DS-47, Ngly-Ncpe-Nbn-Ntfb-Nbn-NH2] (H-G[Gly(N-cPent)][Nphe][Nphe][X1]-NH2) | significant effect of increasing AMPK phosphorylation activity | 1.6 | reduced the AMPK phosphorylation activity | –
10 | – | – | – | > 100 | > 100 | > 100 | > 100 | 93.7 | 83.7 | 72.2 | NCC(=O)N(CC(=O)N(CC(=O)N(CC(=O)N(CC(N)=O)Cc1ccccc1)Cc1ccc(O)cc1)Cc1ccc(O)cc1)CC1CC1 [DS-31, Ngly-Ncpr-Ntyr-Ntyr-Nbn-NH2] (H-G[Gly(NCH2cPr)][Gly(N-4-hydroxybenzyl)][Gly(N-4-hydroxybenzyl)][Nphe]-NH2) | – | – | – | –
